Entries after “also recorded” stand apart in the source; their conditions may differ.
Legend:
TxA2 Synthase [1] = molecular target: T1, TxA2 Synthase (Rattus norvegicus, UniProt P49430); test: TxA2 Synthase activity in vitro: TxB2 generated in whole blood during clotting (RRM rats); assay type: cell-based; conditions: for inhibitory activity on TxA2 synthesis (in words): in vitro, RRM rat whole blood / glomeruli; for IC50: whole blood of RRM rats, clotting 1 h at 37° C., n = 8, limits for p = 0.95, read-out: In vitro effects on T × B2 production, IC50, Whole Blood
T1 construct: TxB2 generated in whole blood during clotting; from tissue; host or cells: rat whole blood, clotting (RRM rats)
T1 sequence (P49430 1-533): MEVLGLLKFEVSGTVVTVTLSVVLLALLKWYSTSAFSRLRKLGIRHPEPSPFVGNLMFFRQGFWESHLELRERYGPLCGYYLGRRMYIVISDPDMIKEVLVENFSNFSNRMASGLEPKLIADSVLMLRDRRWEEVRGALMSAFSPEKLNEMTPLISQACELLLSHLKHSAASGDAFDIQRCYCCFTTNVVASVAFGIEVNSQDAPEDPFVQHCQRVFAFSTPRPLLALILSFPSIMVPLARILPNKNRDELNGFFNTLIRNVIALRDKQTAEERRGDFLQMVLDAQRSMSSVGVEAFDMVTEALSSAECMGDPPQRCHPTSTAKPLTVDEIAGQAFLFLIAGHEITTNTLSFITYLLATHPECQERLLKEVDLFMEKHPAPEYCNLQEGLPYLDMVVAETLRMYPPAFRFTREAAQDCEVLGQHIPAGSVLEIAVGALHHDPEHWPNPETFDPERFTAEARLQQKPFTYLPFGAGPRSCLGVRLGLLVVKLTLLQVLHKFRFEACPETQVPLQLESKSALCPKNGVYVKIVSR
Description: (§1) The compounds of formula (I) were for example tested for their ability to inhibit TxA2 Synthase activity (as reflected by TxB2 generated in whole blood during clotting or in isolated glomeruli) in vitro in the rat.
(§2) The in vitro experiments were carried out as follows: The effect of the compounds on TxA2 synthesis was evaluated in serum and in glomeruli isolated from kidney cortex of reduced renal mass rats (RRM). Ablation of >70% of renal mass in the rat results in hypertension, proteinuria and glomerular sclerosis of the remnant kidney. Rats with a remnant kidney have increased excretion of thromboxane in the urine when compared with normal rats (Purkerson et al., Proc. Natl. Acad. Sci. USA 82, 193, 1985).
Blood was withdrawn from the abdominal aorta of the animals under light ether anesthesia.
Samples were then allowed to clot for 1 h at 37° C., centrifuged at 3000 rpm for 10 min, serum collected and stored at -20° C. until assayed. TxB2 levels were determined by RIA according to previously described procedures [Patrono et al.-Thromb. Res. 17, 3/4, 317, 1980] using highly specific antibody.

[2] = molecular target: T2, TxA2 receptor (washed human platelets) (Homo sapiens, UniProt P21731); test: TxA2 antagonism, [^3H]-SQ 29,548 binding displacement in washed human platelets
T2 construct: endogenous in cells; host or cells: washed platelets of healthy human volunteers
T2 sequence (P21731 1-343): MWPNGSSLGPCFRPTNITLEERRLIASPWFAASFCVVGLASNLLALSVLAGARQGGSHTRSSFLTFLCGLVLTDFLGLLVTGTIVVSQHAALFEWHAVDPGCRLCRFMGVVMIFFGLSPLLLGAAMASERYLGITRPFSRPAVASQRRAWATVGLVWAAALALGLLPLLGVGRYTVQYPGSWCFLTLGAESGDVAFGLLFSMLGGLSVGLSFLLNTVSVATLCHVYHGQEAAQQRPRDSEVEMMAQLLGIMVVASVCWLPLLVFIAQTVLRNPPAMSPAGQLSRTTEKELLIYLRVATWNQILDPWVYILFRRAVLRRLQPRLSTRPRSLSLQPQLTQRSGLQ
Description: Moreover the compounds of the invention were tested for TxA2 antagonism in a binding assay in washed human platelets, using as radiolabelled ligand [^3 H]-SQ 29,548.
The experiments were carried out as follows: Blood from healthy volunteers of both sexes who had no taken any medication for at least 10 days is collected into one-tenth volume of acid citrate dextrose containing indomethacin (28 μM). Platelet rich plasma (PRP), obtained by centrifugation of the blood at 200×g for 20 min, is washed twice (1000×g for 10 min). The platelets are then resuspended in Tyrode-Hepes buffer (pH 7.4) to a final concentration of […] and incubated for 0-60 min at 25° with [^3 H]-SQ 29,548 (5 nM). For displacement experiments various concentrations (10^-9 -10^-4 M) of competing ligands were added and incubated for 30 min at 25° C.
After the incubation, 4 ml of ice-cold TRIS-HCL buffer (10 mM, pH 7.4) was added to each tube and the reaction mixture was immediately filtered by suction through a Whatman […] glass filter disc which was washed 2 times with ice-cold TRIS-HCl (4 ml) and counted for radioactivity by a Packard-β-counter.

TxA2 Synthase [3] = molecular target: T1, TxA2 Synthase; conditions: no test data given; cited from earlier work
TxA2 Synthase [4] = molecular target: T1, TxA2 Synthase; test: TxA2 Synthase activity in vitro: TxB2 production in isolated glomeruli (RRM rats); assay type: cell-based; conditions: isolated glomeruli of RRM rats, 1 h at 37° C., n = 6; limits for p = 0.95; read-out: In vitro effects on T × B2 production, IC50, Glomeruli
Description: as §1, §2
The isolated glomeruli of 4 rats were pooled, suspended in modified Krebs buffer (pH 7.3) and divided into portions of 1 ml each containing a concentration of the test compounds or of the reference compounds.

IC50 (TxA2 Synthase [1]) [nM]	IC50 ([2]; [^3H]-SQ 29,548 5 nM, 30 min at 25° C.) [nM]	IC50 (TxA2 Synthase [4]) [nM]	SMILES	inhibitory activity on TxA2 synthesis (in words) (TxA2 Synthase [1])	affinity for the receptor (in words) ([2]; [^3H]-SQ 29,548 binding)	TxA2 synthase inhibitory activity of known compound (in words) (TxA2 Synthase [3])
23	–	–	O=C(O)CCCCO/N=C(/c1ccccc1)C(Cc1ccccc1)n1ccnc1 (racemic) [FCE 27108, (±) (Z)-5-[1-phenyl-2-(imidazol-1-yl)-2-benzylethylidene]aminoxypentanoic acid]	marked inhibitory activity on TxA2 synthesis significantly more potent than that of reference compounds Dazoxiben and ASA	–	–
48.3	190	–	O=C(O)CCCCO/N=C(\c1ccccc1)C(Cc1ccccc1)n1ccnc1 (racemic) [FCE 27109, (±) (E)-5-[1-phenyl-2-(imidazol-1-yl)-2-benzylethylidene]aminoxypentanoic acid]	marked inhibitory activity on TxA2 synthesis significantly more potent than that of reference compounds Dazoxiben and ASA; also recorded: active as TxA2 synthase inhibitor	good affinity for the receptor better than that showed by the known compound Sulotroban (BM 13177)	–
19	–	36	O=C(O)CCCCO/N=C(\Cn1ccnc1)C1CCCCC1 [FCE 26398, (Z)-5-[1-cyclohexyl-2-(imidazol-1-yl)-ethylidene]aminoxypentanoic acid]	marked inhibitory activity on TxA2 synthesis significantly more potent than that of reference compounds Dazoxiben and ASA	–	–

More lines, now with the values behind:

SMILES	IC50 (TxA2 Synthase [1]) [nM]	IC50 ([2]; [^3H]-SQ 29,548 5 nM, 30 min at 25° C.) [nM]	IC50 (TxA2 Synthase [4]) [nM]	inhibitory activity on TxA2 synthesis (in words) (TxA2 Synthase [1])	affinity for the receptor (in words) ([2]; [^3H]-SQ 29,548 binding)	TxA2 synthase inhibitory activity of known compound (in words) (TxA2 Synthase [3])
CC(=O)Oc1ccccc1C(=O)O [ASA, Acetylsalicylic acid, reference compound]	42000	–	–	–	–	–
O=C(O)COc1ccc(CCNS(=O)(=O)c2ccccc2)cc1 [BM 13177, Sulotroban]	–	–	–	–	–	devoid of TxA2 synthase inhibitory activity

From patent publication US5280033A, “Substituted 1-(alkoxy-iminoalkyl) imidazole derivatives and their use in treating disease related to an enhancement of thromboxane-A2 syntheis” (Farmitalia Carlo Erba S RL, priority 1990, dated 1994)
